We go through one compound from patent US20260061016A1, “Extrait aqueux des parties aériennes d'une plante du genre Aster et ses utilisations” (TAUDERMA, priority 2022, published 2026).

This experiment deals with S. aureus registered under number DSM799. The experiment in a line: Minimum inhibitory concentration (MIC), solution culture in 96-well plates followed by drop culture on TSB agar. Format: cell-based, Staphylococcus aureus. As to the method: The aim of the test is to compare the efficacy of an extract according to Example 1 or Example 2 and an extract of the Aster genus obtained from the root system (Without the Invention). The aim of the test is to identify the minimum inhibitory concentration (MIC) on a strain of S. aureus registered under number DSM799. The minimum inhibitory concentration (MIC) was determined in vitro using S. aureus solution culture in 96-well plates. The initial concentration of S. aureus was 1.25*10^5 CFU/ml. After 48 h incubation in the presence of a series of dilutions of the extract, a 20 μl drop was taken and placed on a TSB agar plate. The diameter of the “drop culture” is about 1.5 cm. Agar plate cultures were then incubated at 37° C. for 14 hours. The positive control corresponds to the maximum growth of a bacterium, that is, when it is fully confluent, meaning that bacterial colonies stick together and none are visible. Different extracts according to the invention and not according to the invention at different concentrations are thus compared. When no colonies, or separate individual colonies, are visible, then the bacteria have been inhibited by the extract. The extract concentration is then defined as MIC. […] The definition of MIC is as follows: Arbitrary units of bacterial growth were determined on agar culture plates (drop method). […]

≈ marks a conversion by molar mass, not a printed value.

For the compound `O=C(N[C@H](CO)[C@H](O)c1ccc([N+](=O)[O-])cc1)C(Cl)Cl` [Chloramphenicol], the minimal inhibitory concentration (MIC) (Staphylococcus aureus, 48 h incubation with extract dilutions, drop on TSB agar, 14 h at 37° C.) came to 50 µg/mL (≈ 155 µM). Where the note is “agar drop culture at the MIC”, this compound came in with a Number of colonies of 0.
